Measured values published in patent US9453226B2, “Protection of cells from Alu-RNA-induced degeneration and inhibitors for protecting cells” (UNIVERSITY OF KENTUCKY RESEARCH FOUNDATION, priority 2011, dated 2016).

Columns and labels:
RPE = experiment: pAlu-induced RPE degeneration in wild-type mice, inhibitors given intravitreously; format: in vivo; details: WT mice, subretinal pAlu, inhibitor intravitreous, fundus photographs and ZO-1 flat mounts
Description: Subretinal injection and imaging. Subretinal injections (1 μL) were performed using a Pico-Injector (PLI-100, Harvard Apparatus). Plasmids were transfected in vivo using 10% Neuroporter (Genlantis). Fundus imaging was performed on a TRC-50 IX camera (Topcon) linked to a digital imaging system (Sony). RPE flat mounts were immunolabeled using antibodies against zonula occludens-1 (Invitrogen).
Retinal photographs of dilated mouse eyes were taken with a TRC-50 IX camera (Topcon) linked to a digital imaging system (Sony).
Human eyes fixed in 2-4% paraformaldehyde were prepared as eyecups, cryoprotected in 30% sucrose, embedded in optimal cutting temperature compound (Tissue-Tek OCT; Sakura Finetek), and cryosectioned into 10 μm sections. Depigmentation was achieved using 0.25% potassium permanganate and 0.1% oxalic acid. Immunohistochemical staining was performed with the rabbit antibody against NLRP3 (1:100, Sigma Aldrich) or rabbit antibody against Caspase-1 (prediluted, AbCam). Isotype IgG was substituted for the primary antibody to assess the specificity of the staining. Bound antibody was detected with biotin-conjugated secondary antibodies, followed by incubation with ABC reagent and visualized by Vector Blue (Vector Laboratories). Levamisole (Vector Laboratories) was used to block endogenous alkaline phosphatase activity. Slides were washed in PBS, counterstained with neutral red (Fisher Scientific), rinsed with deionized water, air dried, and then mounted in Vectamount (Vector Laboratories). Fluorescent labeling of human tissue was performed with the rabbit antibody against PYCARD (1:50, Clone N-15, Santa Cruz Biotechnology) Immunolabeling was visualized by fluorescently conjugated anti-rabbit secondary antibody (Invitrogen). Tissue autofluorescence was quenched by incubating the sections in 0.3% Sudan black (Fisher Scientific). Sections were mounted in Vectashield with DAPI (Vector Laboratories). Mouse RPE/choroid flat mounts were fixed with 4% paraformaldehyde or 100% methanol, stained with rabbit antibodies against human zonula occludens-1 (1:100, Invitrogen) and visualized with Alexa594 (Invitrogen). All images were obtained using the Leica SP-5 or Zeiss Axio Observer Z1 microscopes.
Subretinal injections (1 μL) in mice were performed using a Pico-Injector (PLI-100, Harvard Apparatus). In vivo transfection of plasmids coding for two different Alu sequences (pAlu) or empty control vector (pNull) (Bennett et al., 2008; Kaneko et al., 2011; Shaikh et al., 1997) was achieved using 10% Neuroporter (Genlantis). AAV1-BEST1-Cre (Alexander and Hauswirth, 2008) or AAV1-BEST1-GFP were injected at 1.0×10^11 pfu/mL and in vitro transcribed Alu RNA was injected at 0.3 mg/mL.
siRNAs formulated in siRNA buffer (20 mM KCL, 0.2 mM MgCl2 in HEPES buffer at pH 7.5; Dharmacon) or phosphate buffered saline (PBS; Sigma-Aldrich); the TLR4 antagonist Ultra Pure Rhodobacter sphaeroides LPS (LPS-RS, InvivoGen), a peptide inhibitor of MyD88 homodimerization IMG-2005 (IMGENEX), control inhibitor (IMGENEX), recombinant IL-18 (Medical & Biological Laboratories), neutralizing rat antibodies against mouse IL-1β (IMGENEX), neutralizing rat antibodies against mouse IL-18 (Medical & Biological Laboratories), isotype control IgGs (R&D Systems or eBioscience as appropriate), Caspase-1 inhibitor Z-WEHD-FMK (R&D Systems), Caspase control inhibitor Z-FA-FMK (R&D Systems), DPI (Enzo Life Sciences), Mito-TEMPO (Enzo Life Sciences), MitoQ and dTPP (both adsorbed to cyclodextrin and provided by M.P. Murphy, MRC Mitochondrial Biology Unit), and gp91ds-tat and scrambled gp91 ds-tat (both Anaspec), were dissolved in phosphate buffered saline (PBS; Sigma-Aldrich) or dimethyl sulfoxide (DMSO; Sigma-Aldrich), and injected into the vitreous humor in a total volume of 1 μL with a 33-gauge Exmire microsyringe (Ito Corporation). […] As a control, Luc siRNA-chol (17+2 nt) was used with identical dosages. […]

IRAK1/4 phosphorylation = IRAK1/4 phosphorylation in human RPE cells (Western blot); format: cell-based; details: human RPE cells; normalized to Vinculin
Description: Protein abundance was assessed by Western blot analysis using antibodies against Caspase-1 (1:500; Invitrogen), pIRAK1 (1:500; Thermo Scientific), pIRAK4 (1:500, Abbomax), PYCARD (1:200, Santa Cruz Biotechnology), NLRP3 (1:500, Enzo Life Sciences) and Vinculin (1:1,000; Sigma-Aldrich). Caspase-1 activity was visualized using Caspalux1 E1D2 (Oncolmmunin) according to manufacturer's instructions.
Tissues or cells were homogenized in lysis buffer (10 mM Tris base, pH 7.4, 150 mM NaCl, 1 mM EDTA, 1 mM EGTA, 1% Triton X-100, 0.5% NP-40, protease and phosphatase inhibitor cocktail (Roche)). Protein concentrations were determined using a Bradford assay kit (Bio-Rad) with bovine serum albumin as a standard. Proteins (40-100 μg) were run on NuPAGE Bis-Tris gels (Invitrogen) and transferred to Immun-Blot PVDF membranes (Bio-Rad). Cells were scraped in hot Laemmli buffer (62.5 mM Tris base, pH 6.8, 2% SDS, 5% 2-Mercaptoethanol, 10% Glycerol, 0.01% Bromophenol Blue). Samples were boiled and run on 4-20% NuPAGE Tris-Glycine gels (Invitrogen). The transferred membranes were blocked for 1 h at RT and incubated with antibodies against human Caspase-1 (1:500; Invitrogen), mouse Caspase 1 (1:500; MBL), NLRP3 (1:1000; Enzo Life Sciences), PYCARD (1:1000, RayBiotech), phospho-IRAK1 (S376) (1:500, Thermo Scientific), phospho-IRAK4 (T345) (1:500, AbboMax), DICER1 (1:2,000; Bethyl), MyD88 (1:1,000; Cell Signaling), and mouse IL-18 (1:200; MBL) at 4° C. overnight. Protein loading was assessed by immunoblotting using an anti-Vinculin antibody (1:1,000; Sigma-Aldrich). The secondary antibodies were used (1:5,000) for 1 h at RT. The signal was visualized by enhanced chemiluminescence (ECL plus) and captured by VisionWorksLS Image Acquisition and Analysis software (Version 6.7.2, UVP, LLC).

Substance	pAlu-induced RPE degeneration (RPE)	Alu RNA-induced IRAK1/4 phosphorylation (IRAK1/4 phosphorylation)	pAlu-induced RPE degeneration (RPE; listed as Caspase-1 peptide inhibitor)
DRQIKIWFQNRRMKWKKRDVLPGT [MyD88 inhibitory peptide]	inhibited	reduces	
Z-WEHD-FMK	blocked	reduced	protects
